Measurements published in PMC10480161, “Identification of potent and selective N-myristoyltransferase inhibitors of Plasmodium vivax liver stage hypnozoites and schizonts” (Nature Communications, 2023).
Several values for one entry are separate records, joined by “and”; a condition that tells them apart may be missing. Identical values can stand only once.

Key:
P. vivax hypnozoites = experiment: P. vivax liver stage assay, hypnozoites; format: cell-based, Plasmodium vivax; conditions: for Hypnozoites per well: Isolate 2, replicate wells (Figure 6d); for Number of liverstage hypnozoites per well: 20 µM, 8 dpi; for IC50: Plasmodium vivax, Hepatocyte, 120 h, primary human hepatocytes, treatment day 5 to 8 post-infection, isolate 2
Protocol: Finally, we evaluated the NMT-binding compounds against non-developing P. vivax hypnozoites. […] (Fig. 6A). […] We, therefore, evaluated the impact of all tested compounds on P. vivax hypnozoites using these two isolates.
(§1) Plasmodium vivax liver stage assays were performed as described previously. Cryopreserved primary human hepatocytes (Cat No. F00995-P) and hepatocyte culture medium (HCM) (InVitroGroTM CP Medium) were obtained from Bioreclamation IVT, Inc., (Baltimore, MD, USA). Briefly, we seeded 384-well plates with primary hepatocytes from a single donor lot at a density of 25,000 cells per well. We then infected the hepatocytes with 14,000 freshly hand-dissected sporozoites per well. Cells were exposed to the compounds at indicated concentrations from day 5 post-infection. We used Pi4K inhibitor MMV390048, at 20 µM, as a positive control to eliminate P. vivax liver schizonts. We then proceeded to feed cultures every day, replacing the compounds until day 8 post-infection. Cells were fixed with 4% PFA, permeabilized with 1% Triton X-100, blocked with 2% BSA, and stained with DAPI and PvUIS4 antibodies to detect schizonts and hypnozoites forms by confocal microscopy. For antibody dilutions, PvUIS4 (kind gift from Dr. Noah Sather, Seattle Children’s Research Institute) was diluted 1:250 and the secondary antibody was anti-mouse AlexaFluor-594 (Cat # A-11005; RRID: AB_2534073) diluted 1:1000. DAPI was diluted 1:2000. The images were processed, analyzed and outlier cells were removed using IMARIS (Bitplane Inc.) image analysis software.

P. vivax schizonts = experiment: P. vivax liver stage assay, schizonts; format: cell-based, Plasmodium vivax; conditions: for Number of liverstage Schizonts per well: 20 µM, 8 dpi; for IC50: Plasmodium vivax, Hepatocyte, 120 h, primary human hepatocytes, treatment day 5 to 8 post-infection, isolates 2 and 3
Protocol: We next evaluated the candidate compounds against liver-stage P. vivax (Fig. 5). P. vivax sporozoites were obtained from three independent patient isolates and cultured in primary human hepatocytes from a single donor lot using a 384-well microculture system as described previously. Cells were infected and treated with NMTis at 20 µM beginning day 5 post-infection until day 8 when the infection rates were quantified by fluorescent microscopy.
Accordingly, we applied dose–response curves of all the tested NMTs on parasite isolates 2 and 3 over concentrations up to 20 µM (Fig. 5c, d, Source Data file). We observed similar kinetics for all inhibitors, with a gradual decrease in parasite load upon increasing the drug concentration. […] Nuclei were counted in each well using DAPI staining as a measure of toxicity (Supplementary Fig. 86, Supplementary Source data). We used the phosphatidylinositol 4-kinase inhibitor (PI4Ki), MMV390048, as a positive control for eliminating schizonts[37],[38].
as §1

HepG2 cells = experiment: HepG2 cytotoxicity assay (Live/Dead staining); conditions: replicates
Protocol: Therefore, we assessed cytotoxicity in the human hepatoma HepG2 cell line. We required a PvNMT to HsNMT SI > 20 for further screening. HepG2 cells were exposed to the compounds at concentrations ranging from 1 to 20 µM for […], and toxicity was assessed via live-dead staining.
The viability of the HepG2 cell line following exposure to the compounds was determined by a Live/Dead cell assay kit (Invitrogen). Briefly, cells were added to a 96-well plate at a concentration of 5000 cells per well, excluding the exterior wells. Cells were exposed to the compounds at different concentrations ranging from 1 to 20 µM. Cells were washed every 24 h and supplemented with fresh doses of compounds. At 72 h post-treatment, 1 µM calcein-AM and 1 µM ethidium homodimer were added to the wells and incubated for 10 min at 37 °C. After washing with PBS, the cells were visualized with fluorescent microscopy (Keyence BZ-X700).

HsNMT1 = target: T1, HsNMT1 (Homo sapiens, UniProt P30419); experiment: NMT activity assay (CPM detection of free CoA), HsNMT
T1 sequence (P30419 1-496): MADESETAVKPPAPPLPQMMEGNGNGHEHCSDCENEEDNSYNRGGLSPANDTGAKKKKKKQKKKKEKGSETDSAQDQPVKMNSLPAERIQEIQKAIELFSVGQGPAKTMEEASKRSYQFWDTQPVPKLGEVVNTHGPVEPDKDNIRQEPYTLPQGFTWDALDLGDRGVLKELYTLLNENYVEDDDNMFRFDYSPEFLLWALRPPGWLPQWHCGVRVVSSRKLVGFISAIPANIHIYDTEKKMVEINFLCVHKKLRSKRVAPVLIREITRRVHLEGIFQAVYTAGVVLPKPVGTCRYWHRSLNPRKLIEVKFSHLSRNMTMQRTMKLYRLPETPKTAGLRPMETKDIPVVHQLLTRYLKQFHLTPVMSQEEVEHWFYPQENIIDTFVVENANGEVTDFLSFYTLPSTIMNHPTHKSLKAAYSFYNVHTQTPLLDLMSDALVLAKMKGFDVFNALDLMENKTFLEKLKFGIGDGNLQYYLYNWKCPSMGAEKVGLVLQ

PvNMT = PvNMT (Plasmodium vivax, UniProt A5K1A2); experiment: NMT activity assay (CPM detection of free CoA), PvNMT; conditions: for IC50: PvNMT IC50, mean of two or more determinations; for SI: enzyme selectivity, HsNMT IC50/PvNMT IC50
[1] = isolate 1, technical replicates (Fig. 6C)
[2] = isolate 2, technical replicates (Fig. 6C)
[3] = isolate 3, technical replicates (Fig. 6C)
[4] = isolate 1, technical replicates (Fig. 5b)
[5] = isolate 2, technical replicates (Fig. 5b)
[6] = isolate 3, technical replicates (Fig. 5b)

PvNMT, sequence (A5K1A2 entry or part of it): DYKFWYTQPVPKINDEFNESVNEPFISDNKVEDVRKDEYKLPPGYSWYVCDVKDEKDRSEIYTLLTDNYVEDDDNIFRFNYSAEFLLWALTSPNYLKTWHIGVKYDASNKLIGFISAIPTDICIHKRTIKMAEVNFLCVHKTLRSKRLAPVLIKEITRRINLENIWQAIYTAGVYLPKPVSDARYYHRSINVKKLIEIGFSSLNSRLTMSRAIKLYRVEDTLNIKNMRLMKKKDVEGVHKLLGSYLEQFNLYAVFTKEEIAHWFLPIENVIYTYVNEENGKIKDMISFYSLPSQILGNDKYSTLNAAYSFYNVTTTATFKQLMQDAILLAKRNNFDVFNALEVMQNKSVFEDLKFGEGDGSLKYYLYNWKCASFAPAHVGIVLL

Structure (SMILES)	Hypnozoites per well (P. vivax hypnozoites; 1.25 uM)	Hypnozoites per well (P. vivax hypnozoites; 2.5 uM)	Hypnozoites per well (P. vivax hypnozoites; 5 uM)	Hypnozoites per well (P. vivax hypnozoites; 10 uM)	Number of liverstage hypnozoites per well (P. vivax hypnozoites; [1])	Number of liverstage hypnozoites per well (P. vivax hypnozoites; [2])	Number of liverstage hypnozoites per well (P. vivax hypnozoites; [3])	Hypnozoites per well (P. vivax hypnozoites; 20 uM)	IC50 (P. vivax hypnozoites)	Number of liverstage Schizonts per well (P. vivax schizonts; [4])	Number of liverstage Schizonts per well (P. vivax schizonts; [5])	Number of liverstage Schizonts per well (P. vivax schizonts; [6])	Schizonts per well (P. vivax schizonts; Isolate 2, 1.25 uM)	Schizonts per well (P. vivax schizonts; Isolate 2, 2.5 uM)	Schizonts per well (P. vivax schizonts; Isolate 2, 5 uM)	Schizonts per well (P. vivax schizonts; Isolate 2, 10 uM)	Schizonts per well (P. vivax schizonts; Isolate 3, 1.25 uM)	Schizonts per well (P. vivax schizonts; Isolate 3, 2.5 uM)	Schizonts per well (P. vivax schizonts; Isolate 3, 5 uM)	Schizonts per well (P. vivax schizonts; Isolate 3, 10 uM)	other results
Cc1nn(C)c(C)c1CCOc1cccnc1-c1cccc(N2CCNCC2)c1 [Compound 12b]	3 and 4 (2×)	3 and 4 (2×)	2 (2×) and 3	1 (2×) and 0	5 per well and 9 per well and 0 per well	1 per well and 0 per well (2×)	0 per well	1 and 0 (2×)	1700 nM	1 per well and 2 per well and 0 per well	2 per well (2×) and 4 per well	1 per well and 2 per well	12 per well and 11 per well and 9 per well	11 per well and 7 per well and 10 per well	8 per well and 7 per well and 5 per well	2 per well and 4 per well	11 per well and 15 per well	9 per well and 11 per well	8 per well and 10 per well	4 per well and 3 per well	Schizonts per well (P. vivax schizonts; Isolate 3, 20 uM (Fig. 5c-d)): 1 per well and 2 per well; IC50 (P. vivax schizonts): 2300 to 4600 nM; Percentage of live HepG2 cells compared with diluent controls (HepG2 cells; 1 μM): 108.074% and 106.671%; Percentage of live HepG2 cells compared with diluent controls (HepG2 cells; 2.5 μM): 106.359% and 104.514%; Percentage of live HepG2 cells compared with diluent controls (HepG2 cells; 5 μM): 106.385% and 94.2234%; Percentage of live HepG2 cells compared with diluent controls (HepG2 cells; 10 μM): 92.0406% and 101.317%; Percentage of live HepG2 cells compared with diluent controls (HepG2 cells; 20 μM): 83.7772% and 84.1151%; IC50 (HsNMT1): 20800 nM; IC50 (PvNMT): 80.2 nM and 80.1 nM; SI (PvNMT): > 145 and > 150 and > 250
Cc1nn(C)c(C)c1CCOc1ccccc1-c1cccc(N2CCNCC2)c1 [Compound 12d]	11 and 8 and 9	7 (2×) and 8	5 (2×) and 7	3 (2×) and 2	1 per well (2×) and 0 per well	3 per well and 0 per well and 1 per well	0 per well	3 and 0 and 1	4700 nM	1 per well (2×) and 0 per well	2 per well and 0 per well and 1 per well	2 per well and 1 per well	12 per well and 13 per well	11 per well and 9 per well and 15 per well	9 per well and 7 per well and 11 per well	8 per well and 5 per well	12 per well	6 per well and 11 per well	7 per well and 6 per well	5 per well and 4 per well	hypnozoites (fold change to DMSO) mean diff (P. vivax hypnozoites; isolate 1, 20 µM): 0.939; hypnozoites (fold change to DMSO) mean diff (P. vivax hypnozoites; isolate 2, 20 µM): 0.862; Schizonts per well (P. vivax schizonts; Isolate 3, 20 uM (Fig. 5c-d)): 2 per well and 1 per well; IC50 (P. vivax schizonts): 3300 to 4300 nM; schizonts (fold change to DMSO) mean diff (P. vivax schizonts; isolate 1, 20 µM): 0.967; schizonts (fold change to DMSO) mean diff (P. vivax schizonts; isolate 2, 20 µM): 0.9434; schizonts (fold change to DMSO) mean diff (P. vivax schizonts; isolate 3, 20 µM): 0.8977; Percentage of live HepG2 cells compared with diluent controls (HepG2 cells; 1 μM): 110.153% and 106.021%; Percentage of live HepG2 cells compared with diluent controls (HepG2 cells; 2.5 μM): 105.943% and 99.4465%; Percentage of live HepG2 cells compared with diluent controls (HepG2 cells; 5 μM): 100.018% and 98.1213%; Percentage of live HepG2 cells compared with diluent controls (HepG2 cells; 10 μM): 93.0281% and 104.514%; Percentage of live HepG2 cells compared with diluent controls (HepG2 cells; 20 μM): 84.6088% and 84.0111%; IC50 (HsNMT1): 7440 nM; IC50 (PvNMT): 48.5 nM; SI (PvNMT): 153.4
